According to patent US7855292B2, “Sulfonamide compounds” (Janssen Pharmaceutica NV, priority 2004, dated 2010):

What was measured:
CCK-1 receptor = biological target: T1, CCK-1 receptor (Homo sapiens, UniProt P32238); assay: CCK1 binding assay ([125I]-BH-CCK-8S displacement, CHO-K1 membranes); conditions: membranes of CHO-K1 cells stably transfected with the CCK-1 receptor, 20 pM [125I]-BH-CCK-8S, 0.3 μM PD-134,308 present, 60 min at 21±3° C.; for Ki: read-out: CCK1 pKi (converted)
T1 construct: expressed in transfected cells; host or cells: CHO-K1
T1 sequence (P32238 1-428): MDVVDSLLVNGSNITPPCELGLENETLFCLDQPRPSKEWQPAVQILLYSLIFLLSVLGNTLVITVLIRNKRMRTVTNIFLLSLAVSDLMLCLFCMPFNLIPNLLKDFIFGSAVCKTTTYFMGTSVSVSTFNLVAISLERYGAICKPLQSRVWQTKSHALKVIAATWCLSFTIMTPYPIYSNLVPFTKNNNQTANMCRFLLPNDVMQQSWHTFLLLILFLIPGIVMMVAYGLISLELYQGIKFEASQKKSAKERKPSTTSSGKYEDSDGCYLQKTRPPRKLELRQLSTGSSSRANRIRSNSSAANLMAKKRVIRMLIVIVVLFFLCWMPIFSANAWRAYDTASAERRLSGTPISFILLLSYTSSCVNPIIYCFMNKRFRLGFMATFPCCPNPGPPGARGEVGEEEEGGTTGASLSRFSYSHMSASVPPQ
Summary of the method: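 Membranes from CHO-K1 cells stably expressing CCK-1 incubated 1 h at 21±3° C with 20 pM [125I]-BH-CCK-8S in HEPES buffer pH 7.2 containing 0.3 μM PD-134,308 to block CCK-2. Bound radioactivity read by gamma counting after filtration. pKi derived via Cheng-Prusoff, with specific binding defined using 2-NAP.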

CCK2 receptor = biological target: T2, CCK2 receptor (Homo sapiens, UniProt P32239); assay: CCK2 binding assay ([125I]-BH-CCK-8S displacement, HEKZFP membranes); conditions: membranes of doxycycline-induced HEKZFP cells, 20 pM [125I]-BH-CCK-8S, 60 min at 21±3° C.; for Ki: read-out: CCK2 pKi (converted)
T2 construct: analyzed for ZFP expression as well as CCK2R induction upon addition of doxycycline to the culture medium; endogenous in cells
T2 sequence (P32239 1-447): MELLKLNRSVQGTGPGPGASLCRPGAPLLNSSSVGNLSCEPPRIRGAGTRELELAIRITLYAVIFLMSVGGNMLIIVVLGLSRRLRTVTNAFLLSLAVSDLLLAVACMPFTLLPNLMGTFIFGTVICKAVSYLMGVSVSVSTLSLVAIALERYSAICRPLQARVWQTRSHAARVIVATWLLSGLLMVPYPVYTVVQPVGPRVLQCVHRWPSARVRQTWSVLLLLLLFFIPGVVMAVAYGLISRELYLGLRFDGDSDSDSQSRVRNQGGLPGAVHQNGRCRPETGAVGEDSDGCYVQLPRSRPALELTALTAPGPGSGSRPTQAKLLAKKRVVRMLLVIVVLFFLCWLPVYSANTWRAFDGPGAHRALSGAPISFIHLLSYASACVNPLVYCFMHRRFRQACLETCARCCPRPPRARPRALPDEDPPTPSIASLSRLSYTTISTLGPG

| SMILES | Ki (CCK-1 receptor) | Ki (CCK2 receptor) | CCK1 pKi (CCK-1 receptor) | CCK2 pKi (CCK2 receptor) |
| --- | --- | --- | --- | --- |
| CC(CNC(=O)c1ccc(Br)cc1NS(=O)(=O)c1cccc2nsnc12)c1ccc(Cl)cc1 (centres unmarked) [Example 21, 2-(Benzo[1,2,5]thiadiazole-4-sulfonylamino)-4-bromo-N-[2-(4-chloro-phenyl)-propyl]-benzamide] | 126 nM | 1000 nM | – | – |
| CC(Cc1ccc(Cl)cc1)NC(=O)c1ccc(C(F)(F)F)cc1NS(=O)(=O)c1cccc2nsnc12 (centres unmarked) [Example 22, 2-(Benzo[1,2,5]thiadiazole-4-sulfonylamino)-N-[2-(4-chloro-phenyl)-1-methyl-ethyl]-4-trifluoromethyl-benzamide] | 501 nM | 631 nM | – | – |
| CC(Cc1ccc(Cl)cc1)NC(=O)c1ccc(Br)cc1NS(=O)(=O)c1cccc2scnc12 (centres unmarked) [Example 23, 2-(Benzothiazole-4-sulfonylamino)-4-bromo-N-[2-(4-chloro-phenyl)-1-methyl-ethyl]-benzamide] | 1000 nM | 631 nM | – | – |
| CC(CNC(=O)c1ccc(Br)cc1NS(=O)(=O)c1c(F)cccc1F)c1ccc(Cl)cc1 (centres unmarked) [Example 24, 4-Bromo-N-[2-(4-chloro-phenyl)-propyl]-2-(2,6-difluoro-benzenesulfonylamino)-benzamide] | 100 nM | 1260 nM | – | – |
| O=C(N[C@@H](Cc1ccccc1)C(=O)O)c1ccc(C(F)(F)F)cc1NS(=O)(=O)c1cccc2nsnc12 [Example 26, 2-[2-(Benzo[1,2,5]thiadiazole-4-sulfonylamino)-4-trifluoromethyl-benzoylamino]-3-phenyl-propionic acid] | 2510 nM | 39.8 nM | – | – |
| O=C(N[C@@H](Cc1ccccc1)C(=O)O)c1cc(Cl)c(Cl)cc1NS(=O)(=O)c1cccc2nccnc12 [Example 29, 2-[4,5-Dichloro-2-(quinoxaline-5-sulfonylamino)-benzoylamino]-3-phenyl-propionic acid] | 6310 nM | 79.4 nM | – | – |
| CC(CNC(=O)c1ccc(Br)cc1NS(=O)(=O)c1c(F)cccc1F)c1ccc(Cl)c(Cl)c1 (centres unmarked) [Example 30, 4-Bromo-N-[2-(3,4-dichloro-phenyl)-propyl]-2-(2,6-difluoro-benzenesulfonylamino)-benzamide] | 63.1 nM | 2510 nM | – | – |
| CC(CNC(=O)c1ccc(Br)cc1NS(=O)(=O)c1cccc2nsnc12)c1ccccc1 (centres unmarked) [Example 31, 2-(Benzo[1,2,5]thiadiazole-4-sulfonylamino)-4-bromo-N-(2-phenyl-propyl)-benzamide] | – | – | 7.1 | 6.2 |
| O=C(N[C@@H](Cc1ccc(Cl)c(Cl)c1)C(=O)O)c1ccc(I)cc1NS(=O)(=O)c1c(F)cccc1F [Example 32, 3-(3,4-Dichloro-phenyl)-2-[2-(2,6-difluoro-benzenesulfonylamino)-4-iodo-benzoylamino]-propionic acid] | 398 nM | 100 nM | – | – |
| O=C(N[C@@H](Cc1ccc(Cl)cc1)C(=O)O)c1ccc(I)cc1NS(=O)(=O)c1cccc2nsnc12 [Example 33, 2-[2-(Benzo[1,2,5]thiadiazole-4-sulfonylamino)-4-iodo-benzoylamino]-3-(4-chloro-phenyl)-propionic acid] | 158 nM | 39.8 nM | – | – |
| O=C(N[C@@H](Cc1ccc(Cl)cc1)C(=O)O)c1ccc(I)cc1NS(=O)(=O)c1c(F)cccc1F [Example 34, 3-(4-Chloro-phenyl)-2-[2-(2,6-difluoro-benzenesulfonylamino)-4-iodo-benzoylamino]-propionic acid] | 398 nM | 100 nM | – | – |
| C[C@H](CNC(=O)c1ccc(Br)cc1NS(=O)(=O)c1cccc2nsnc12)c1ccccc1 [Example 35, (S)-2-(Benzo[1,2,5]thiadiazole-4-sulfonylamino)-4-bromo-N-(2-phenyl-propyl)-benzamide] | – | – | 7.2 | 6.3 |
| C[C@@H](CNC(=O)c1ccc(Br)cc1NS(=O)(=O)c1cccc2nsnc12)c1ccccc1 [Example 36, (R)-2-(Benzo[1,2,5]thiadiazole-4-sulfonylamino)-4-bromo-N-(2-phenyl-propyl)-benzamide] | – | – | 7.1 | 5.8 |
